The text below walks through data of patent publication US9108926B2, “Disubstituted 5-fluoro-pyrimidines” (Bayer Intellectual Property GmbH, priority 2011, dated 2015).

The test system of one data set is HeLa cells. The data set is described as follows: Proliferation assay, HeLa. The settings on record: Homo sapiens, 96 h, 4 days, crystal violet, read-out: Inhibition of HeLa cell proliferation IC50. Type of data set: cell-based. How it is done:
(§1) After 24 hours, the cells of one plate (zero-point plate) were stained with crystal violet (see below), while the medium of the other plates was replaced by fresh culture medium (200 μl), to which the test substances were added in various concentrations (0 μM, as well as in the range of 0.001-10 μM; the final concentration of the solvent dimethyl sulfoxide was 0.5%). The cells were incubated for 4 days in the presence of test substances. Cell proliferation was determined by staining the cells with crystal violet: the cells were fixed by adding 20 μl/measuring point of an 11% glutaric aldehyde solution for 15 minutes at room temperature. After three washing cycles of the fixed cells with water, the plates were dried at room temperature. The cells were stained by adding 100 μl/measuring point of a 0.1% crystal violet solution (pH 3.0). After three washing cycles of the stained cells with water, the plates were dried at room temperature. The dye was dissolved by adding 100 μl/measuring point of a 10% acetic acid solution. […] The change of cell number, in percent, was calculated by normalization of the measured values to the extinction values of the zero-point plate (=0%) and the extinction of the untreated (0 μm) cells (=100%).

Another data set relates to HeLa-MaTu-ADR cells. The data set is described as follows: Proliferation assay, HeLa-MaTu-ADR. The class given is cell-based. The settings on record: Homo sapiens, 96 h; HeLa-MaTu-ADR, 4 days, crystal violet; read-out: Inhibition of HeLa-MaTu-ADR cell proliferation IC50. How it is done:
as §1

A further data set deals with NCI-H460 cells. As to the kind of experiment: Proliferation assay, NCI-H460. Type of data set: cell-based. The settings on record: Homo sapiens, 96 h; NCI-H460, 4 days, crystal violet; read-out: Inhibition of NCI-H460 cell proliferation IC50. How it is done:
as §1

Another data set has as its system DU145 cells. The data set is described as follows: Proliferation assay, DU145. The class given is cell-based. The settings on record: Homo sapiens, DU-145, 96 h; DU145, 4 days, crystal violet; read-out: Inhibition of DU145 cell proliferation IC50. How it is done:
as §1

The test system of another data set is Caco-2 cells. As to the kind of experiment: Proliferation assay, Caco-2. Type of data set: cell-based. The note with it: Homo sapiens, 96 h; Caco-2, 4 days, crystal violet; read-out: Inhibition of Caco-2 cell proliferation IC50. On the procedure: as §1
A further data set has as its system B16F10 cells. As to the kind of experiment: Proliferation assay, B16F10. The note with it: Mus musculus, B16-F10, 96 h; B16F10, 4 days, crystal violet; read-out: Inhibition of B16F10 cell proliferation IC50. The class given is cell-based. How it is done: as §1
The nature of a further data set: Caco-2 permeation assay. The settings on record: human, pH 7.2, Caco-2, test compound 2 μM; for Papp A→B at 2 h, 2 μM: apical to basolateral, read-out: Papp A-B (Mari); for Papp B→A at 2 h, 2 μM: basolateral to apical, read-out: Papp B-A (Mari). Type of data set: in vitro ADME. How it is done:
4. Caco-2 Permeation Assay:
Caco-2 cells (purchased from DSMZ Braunschweig, Germany) were seeded at a density of 4.5×10^4 cells per well on 24 well insert plates, 0.4 μm pore size, and grown for 15 days in DMEM medium supplemented with 10% fetal bovine serum, 1% GlutaMAX (100×, GIBCO), 100 U/mL penicillin, 100 μg/mL streptomycin (GIBCO) and 1% non essential amino acids (100×). Cells were maintained at 37° C. in a humified 5% CO2 atmosphere. Medium was changed every 2-3 day. Before running the permeation assay, the culture medium was replaced by a FCS-free hepes-carbonate transport buffer (pH 7.2). For assessment of monolayer integrity the transepithelial electrical resistance (TEER) was measured. Test compounds were predissolved in DMSO and added either to the apical or basolateral compartment in final concentration of 2 μM in transport buffer. Before and after 2 h incubation at 37° C. samples were taken from both compartments. Analysis of compound content was done after precipitation with methanol by LC/MS/MS analysis. Permeability (Papp) was calculated in the apical to basolateral (A→B) and basolateral to apical (B→A) directions. […] The efflux ratio basolateral (B) to apical (A) was calculated by dividing the Papp B−A by the Papp A−B. In addition the compound recovery was calculated. The following reference compounds were used for the classification of the permeability class: Antipyrine, Pyrazosin, Verapamil, Fluvastatin, Cimetidine, Ranitidine, Atenolol, Sulfasalazine.

In another data set the target is CDK2/CycE (Homo sapiens, UniProt P24941). The data set is described as follows: CDK2/CycE kinase assay (TR-FRET, Method 2).
In another data set the test system is A2780 cells. As to the kind of experiment: Proliferation assay, A2780. The class given is cell-based. The settings on record: Homo sapiens, 96 h; A2780, 4 days, crystal violet; read-out: Inhibition of A2780 cell proliferation IC50. On the procedure: Cultivated tumour cells (HeLa, human cervical tumour cells, ATCC CCL-2; NCI-H460, human non-small cell lung carcinoma cells, ATCC HTB-177; A2780, human ovarian carcinoma cells, ECACC #93112519; DU 145, hormone-independent human prostate carcinoma cells, ATCC HTB-81; HeLa-MaTu-ADR, multidrug-resistant human cervical carcinoma cells, EPO-GmbH Berlin; Caco-2, human colorectal carcinoma cells, ATCC HTB-37; B16F10, mouse melanoma cells, ATCC CRL-6475) were plated at a density of 5,000 cells/well (DU145, HeLa-MaTu-ADR), 3,000 cells/well (NCI-H460, HeLa), 2,500 cells/well (A2780), 1,500 cells/well (Caco-2), or 1,000 cells/well (B16F10) in a 96-well multititer plate in 200 μL of their respective growth medium supplemented 10% fetal calf serum. […] Cell proliferation was determined by staining the cells with crystal violet: the cells were fixed by adding 20 μl/measuring point of an 11% glutaric aldehyde solution for 15 minutes at room temperature. […] The extinction was determined by photometry at a wavelength of 595 nm. The change of cell number, in percent, was calculated by normalization of the measured values to the extinction values of the zero-point plate (=0%) and the extinction of the untreated (0 μm) cells (=100%).

Source text for CDK2/CycE: CDK2/CycE-inhibitory activity of compounds of the present invention was quantified employing the CDK2/CycE TR-FRET assay as described in the following paragraphs:
Recombinant fusion proteins of GST and human CDK2 and of GST and human CycE, expressed in insect cells (Sf9) and purified by Glutathion-Sepharose affinity chromatography, were purchased from ProQinase GmbH (Freiburg, Germany). As substrate for the kinase reaction biotinylated peptide biotin-Ttds-[sequence] (C-terminus in amid form) was used which can be purchased e.g. form the company JERINI Peptide Technologies (Berlin, Germany).
For the assay 50 nl of a 100 fold concentrated solution of the test compound in DMSO was pipetted into a black low volume 384 well microtiter plate (Greiner Bio-One, Frickenhausen, Germany), 2 μl of a solution of CDK2/CycE in aqueous assay buffer [50 mM Tris/HCl pH 8.0, 10 mM MgCl2, 1.0 mM dithiothreitol, 0.1 mM sodium ortho-vanadate, 0.01% (v/v) Nonidet-P40 (Sigma)] were added and the mixture was incubated for 15 min at 22° C. to allow pre-binding of the test compounds to the enzyme before the start of the kinase reaction. Then the kinase reaction was started by the addition of 3 μl of a solution of adenosine-tri-phosphate (ATP, 16.7 μM=>final conc. in the 5 μl assay volume is 10 μM) and substrate (1.25 μM=>final conc. in the 5 μl assay volume is 0.75 μM) in assay buffer and the resulting mixture was incubated for a reaction time of 25 min at 22° C. The concentration of CDK2/CycE was adjusted depending of the activity of the enzyme lot and was chosen appropriate to have the assay in the linear range, typical concentrations were in the range of 130 ng/mL. The reaction was stopped by the addition of 5 μl of a solution of TR-FRET detection reagents (0.2 μM streptavidine-XL665 [Cisbio Bioassays, Codolet, France] and 1 nM anti-RB(pSer807/pSer811)-antibody from BD Pharmingen [#558389] and 1.2 nM LANCE EU-W1024 labeled anti-mouse IgG antibody [Perkin-Elmer, product no. AD0077]) in an aqueous EDTA-solution (100 mM EDTA, 0.2% (w/v) bovine serum albumin in 100 mM HEPES/NaOH pH 7.0).
The resulting mixture was incubated 1 h at 22° C. to allow the formation of complex between the phosphorylated biotinylated peptide and the detection reagents. Subsequently the amount of phosphorylated substrate was evaluated by measurement of the resonance energy transfer from the Eu-chelate to the streptavidine-XL. Therefore, the fluorescence emissions at 620 nm and 665 nm after excitation at 350 nm was measured in a TR-FRET reader, e.g. a Rubystar (BMG Labtechnologies, Offenburg, Germany) or a Viewlux (Perkin-Elmer). The ratio of the emissions at 665 nm and at 622 nm was taken as the measure for the amount of phosphorylated substrate.

Turning to `COc1cc(F)ccc1-c1nc(Nc2cccc(CS(C)(=O)=O)c2)ncc1F` [Example 1, 5-Fluoro-4-(4-fluoro-2-methoxyphenyl)-N-{3 [(methylsulfonyl)methyl]phenyl}pyrimidin-2-amine], the IC50 in the data set on HeLa cells amounted to 290 nM; with HeLa-MaTu-ADR cells, 170 nM; in the data set on NCI-H460 cells, 330 nM; in the data set on DU145 cells, 290 nM; in the data set on Caco-2 cells it was 260 nM; in the data set with B16F10 cells, 310 nM. This compound also showed an IC50 against CDK2/CycE of 300 nM. Also, in “Caco-2 permeation assay”, the apparent permeability from apical to basolateral (Papp A→B) at 2 h, 2 μM is 20.6 ×10⁻⁶ cm/s. For the same compound, the apparent permeability from basolateral to apical (Papp B→A) at 2 h, 2 μM in the data set “Caco-2 permeation assay” was found to be 8.5 ×10⁻⁶ cm/s.

`COc1cc(F)ccc1-c1nc(Nc2cc(F)cc(CS(C)(=O)=O)c2)ncc1F` [Example 12, 5-Fluoro-4-(4-fluoro-2-methoxyphenyl)-N-{3-fluoro-5-[(methylsulfonyl)methyl]phenyl}pyrimidin-2-amine]: the IC50 in the data set on HeLa cells stood at 110 nM; in the data set on HeLa-MaTu-ADR cells, 120 nM; with NCI-H460 cells, 360 nM; in the data set with DU145 cells, 310 nM; with Caco-2 cells it was 380 nM; with B16F10 cells, 360 nM. Moreover, the values for the IC50 in the data set on A2780 cells and on CDK2/CycE were 110 nM and 200 nM, respectively. For the same compound, the Papp A→B at 2 h, 2 μM in “Caco-2 permeation assay” was found to be 9.7 ×10⁻⁶ cm/s. The Papp B→A at 2 h, 2 μM in the data set “Caco-2 permeation assay” was 3.1 ×10⁻⁶ cm/s.
